Results taken from US9925189B2, “Heterocyclic receptor agonists for the treatment of diabetes and metabolic disorders” (CymaBay Therapeutics, Inc., priority 2006, dated 2018).

Target: T1, IC-GPCR2 (Homo sapiens, UniProt Q8TDV5, S309L)
T1 construct: expressed in transfected cells
T1 sequence (Q8TDV5 1-335 S309L): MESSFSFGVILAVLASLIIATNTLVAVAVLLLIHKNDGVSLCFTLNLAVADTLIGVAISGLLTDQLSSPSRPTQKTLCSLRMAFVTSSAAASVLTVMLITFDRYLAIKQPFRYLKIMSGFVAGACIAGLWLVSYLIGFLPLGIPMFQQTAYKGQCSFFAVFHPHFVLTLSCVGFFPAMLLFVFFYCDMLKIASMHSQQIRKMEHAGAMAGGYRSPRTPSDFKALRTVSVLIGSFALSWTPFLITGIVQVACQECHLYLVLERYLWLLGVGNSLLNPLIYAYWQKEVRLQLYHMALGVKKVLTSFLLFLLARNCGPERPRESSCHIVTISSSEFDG
Experiment: Stimulation of cAMP in CHO cells stably expressing IC-GPCR2 (HTRF cAMP assay)
Type: cell-based
Details: 0.5 h, 30 minutes, IC-GPCR2 stably expressing CHO cells, read-out: Activity at 10 uM (% change in FRET signal from DMSO control)
Method in brief: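 CHO cells stably expressing IC-GPCR2, plated at 17500 cells/well, treated next day for 30 min in Ham's F12 with compounds at 6–8 concentrations from 0.00003 to 10 μM; parental CHO cells also screened. Intracellular cAMP read by HTRF competitive immunoassay (665/620 nm ratio). Activity given as % FRET change from DMSO control.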

CC(C)(C)OC(=O)N1CC(c2nc(COc3ccc(-n4cnnn4)cc3)cs2)C1 [Example 101, 3-[4-(4-tetrazol-1-yl-phenoxymethyl)-thiazol-2-yl]-azetidine-1-carboxylic acid tert-butyl ester]
activation at 10 µM: 44%

Clc1cnc(N2CCC(c3nc(COc4ccc(-n5cnnn5)cc4)cs3)CC2)c(Cl)c1 [Example 196, 3′,5′-Dichloro-4-[4-(4-tetrazol-1-yl-phenoxymethyl)-thiazol-2-yl]-3,4,5,6-tetrahydro-2H-[1,2′]bipyridinyl]
activation at 10 µM: 19%

CCc1cnc(N2CCC(c3nc(COc4ccc(-n5cnnn5)c(Cl)c4)cs3)CC2)nc1 [Example 115, 2-{4-[4-(3-Chloro-4-tetrazol-1-yl-phenoxymethyl)-thiazol-2-yl]-piperidin-1-yl}-5-ethyl-pyrimidine]
activation at 10 µM: 67%

CCc1cnc(N2CCC(c3nc(COc4ccc(-n5nnnc5C)cc4)cs3)CC2)nc1 [Example 12, 5-Ethyl-2-(4-{4-[4-(5-methyl-tetrazol-1-yl)-phenoxymethyl]-thiazol-2-yl}-piperidin-1-yl)-pyrimidine]
activation at 10 µM: 70%

O=C(OCCF)N1CCC(c2nc(COc3ccc(-n4cnnn4)cc3)cs2)CC1 [Example 32, 4-[4-(4-Tetrazol-1-yl-phenoxymethyl)-thiazol-2-yl]-piperidine-1-carboxylic acid 2-fluoro-ethyl ester]
activation at 10 µM: 88%

CC(C)(C)OC(=O)N1CCC(c2nc(COCc3ccc(S(C)(=O)=O)cc3)cs2)CC1 [Example 106, 4-[4-(4-Methanesulfonyl-benzyloxymethyl)-thiazol-2-yl]-piperidine-1-carboxylic acid tert-butyl ester]
activation at 10 µM: 71%

CS(=O)(=O)c1ccc(OCc2csc(C3CCN(C(=O)OC45CC6CC(CC(C6)C4)C5)CC3)n2)cc1 [Example 25, 4-[4-(4-Methanesulfonyl-phenoxymethyl)-thiazol-2-yl]-piperidine-1-carboxylic acid adamantan-1-yl ester]
activation at 10 µM: 23%

CCc1cnc(N2CCC(c3nc(COc4ccc(-n5cnnn5)cc4C)cs3)CC2)nc1 [Example 164, 5-Ethyl-2-{4-[4-(2-methyl-4-tetrazol-1-yl-phenoxymethyl)-thiazol-2-yl]-piperidin-1-yl}-pyrimidine]
activation at 10 µM: 68%

CC(C)(C)OC(=O)N1CCC(c2nc(COc3ccc(-n4ccnc4)cc3)cs2)CC1 [Example 2, 4-[4-(4-Imidazol-1-yl-phenoxymethyl)-thiazol-2-yl]-piperidine-1-carboxylic acid tert-butyl ester]
activation at 10 µM: 50%
